From patent US6268220A, “Diagnostic method for atherosclerosis” (Washington University, priority 1996, dated 2001)
Entries after “also recorded” stand apart in the source; their conditions may differ.

Key:
[1] = system: apolipoprotein B100 of LDL; experiment: Production of 3-chlorotyrosine in LDL modified by different oxidation systems; assay type: biochemical, human; conditions: 37° C.; for 3-chlorotyrosine content of LDL exposed to oxidation system: LDL 512 μg protein/ml, pH 7.4, 60 min or 24 h, FIG. 2, result in words
Experimental: FIG. 2 show production of 3-chlorotyrosine in LDL modified by different oxidation systems. LDL (512 μg protein/ml) was incubated at 37° C. in phosphate buffered saline (10 mM sodium phosphate, 150 mM NaCl, pH 7.4) alone (Control) or with the indicated oxidation system. The complete myeloperoxidase-H2 O2 --Cl^- system consisted of 20 nM myeloperoxidase and 100 μM H2 O2. HOCl was used at 100 μM. Horseradish peroxidase (10 μg/ml and lactoperoxidase (10 μg/ml) were used with 100 μM H2 O2. LDL was exposed to myeloperoxidase, HOCl, horseradish peroxidase and lactoperoxidase for 60 min.
All other oxidation reactions were carried out for 24 h. Final concentrations of oxidants were: peroxynitrite, 100 μM; CuSO4, 10 μM; CuSO4 and H2 O2, 100 μM and 2 mM, respectively; FeSO4, 10 μM; hemin, 10 μM; and glucose, 100 mM. LDL oxidation by lipoxygenase was performed in 50 mM borate, 150 mM NaCl supplemented with phospholipase A2 as previously described (45).
Reaction products were delipidated, acid hydrolyzed, and the 3-chlorotyrosine content of the amino acid hydrolysate determined by stable isotope dilution GC-MS analysis. Values are the mean of duplicate determinations. […] HRP, horseradish peroxidase; MPO, myeloperoxidase-peroxidase.
The complete system consisted of Buffer B (20 mM Na[PO4 ], pH 7.0, 100 μM DTPA) supplemented with LDL (512 μg protein/ml), myeloperoxidase (MPO; 40 nM), H2 O2 (100 μM) and Cl^- (as NaCl; 100 mM). After a 1 h incubation at 37° C., the 3-chlorotyrosine content was determined by stable isotope dilution GC-MS as described under "Methods." The limit of detection of the assay was <0.1 umol 3-chlorotyrosine per mol L-tyrosine. Values are the mean of duplicate determinations.

Human neutrophils = experiment: Formation of 3-chlorotyrosine in LDL exposed to activated human phagocytes; assay type: cell-based; conditions: FIG. 1
Experimental: Human neutrophils (1×10^6 /ml) were incubated at 37° C. in Hank's Balanced Salt Solution supplemented with DTPA (100 μM) and LDL (512 μg protein/ml). Neutrophils were activated with phorbol ester (PMA; 200 nM) and maintained in suspensions by intermittent inversion (Complete neutrophil system).
Following a 60 min incubation, neutrophils were removed by centrifugation. The supernatant was delipidated and dialyzed, ^13 C-labeled internal standards were added, and the samples were then subjected to acid hydrolysis. The content of L-tyrosine and 3-chlorotyrosine in acid hydrolysates were determined by stable isotope dilution GC-MS analysis as described under "Method", below.
Additions or deletions to the complete system were as indicated. The final concentrations of additions were:
3-Chlorotyrosine content of LDL is normalized to the content of the precursor amino acid L-tyrosine. Values are the mean of duplicate determinations.
(§1) General Procedures--All glassware was rendered chlorine-demand free (<3% consumption of 1 mM HOCl in a 10 min incubation at 37° C. within a gas-tight vial as monitored by the oxidation of iodide to triiodide) prior to use (12,25,27). […] Myeloperoxidase (donor: hydrogen peroxide, oxidoreductase, EC 1.11.1.7) was isolated (final A430 /A280 ratio of 0.6) as previously described (28,29). Enzyme concentration was determined spectrophotometrically ε430 =[…] cm^-1; ref. 30). Human neutrophils were isolated by buoyant density centrifugation (31). Medium A (Hank's balanced salt solution (magnesium-, calcium-, phenol- and bicarbonate-free; Gibco-BRL, Gaithersburg, Md.), pH 7.2, supplemented with 100 μM diethylenetriamine pentaacetic acid (DTPA) was used for neutrophil isolation and experiments.

myeloperoxidase = target: T1, myeloperoxidase (Homo sapiens, UniProt P05164); experiment: Chlorination of apolipoprotein B100 of LDL by the myeloperoxidase-H2O2-Cl- system (3-chlorotyrosine by GC-MS); assay type: biochemical; conditions: for 3-Chlorotyrosine/L-Tyrosine: Complete system (LDL 512 μg protein/ml, MPO 40 nM, H2O2 100 μM, Cl- 100 mM) plus additive at printed concentration, 1 h, 37° C., complete system alone 50, detection limit <0.1
T1 construct: light and heavy chains, homodimer) with H2O2, chloride and human LDL as substrate
T1 sequence (P05164 49-745): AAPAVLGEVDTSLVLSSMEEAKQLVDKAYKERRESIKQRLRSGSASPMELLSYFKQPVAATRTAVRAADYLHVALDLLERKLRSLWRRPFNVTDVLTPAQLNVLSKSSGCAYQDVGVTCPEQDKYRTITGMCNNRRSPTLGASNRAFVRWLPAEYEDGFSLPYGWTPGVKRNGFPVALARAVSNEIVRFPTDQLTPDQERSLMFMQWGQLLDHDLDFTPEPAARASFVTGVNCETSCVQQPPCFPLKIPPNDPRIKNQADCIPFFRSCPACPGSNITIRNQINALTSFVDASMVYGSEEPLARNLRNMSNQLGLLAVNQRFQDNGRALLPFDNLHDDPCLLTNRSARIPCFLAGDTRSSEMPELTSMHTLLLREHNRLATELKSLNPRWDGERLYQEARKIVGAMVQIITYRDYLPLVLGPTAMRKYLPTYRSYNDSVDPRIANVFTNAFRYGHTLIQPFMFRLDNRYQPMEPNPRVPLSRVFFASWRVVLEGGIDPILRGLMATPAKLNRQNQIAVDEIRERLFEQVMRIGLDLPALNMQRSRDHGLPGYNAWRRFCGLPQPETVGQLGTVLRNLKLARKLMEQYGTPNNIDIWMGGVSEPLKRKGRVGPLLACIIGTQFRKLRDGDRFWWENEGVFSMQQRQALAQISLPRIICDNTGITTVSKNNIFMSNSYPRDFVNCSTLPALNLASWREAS
Experimental: as §1
Following the addition of 10 pmol 3-[^13 C6 ]chlorotyrosine and 100 nmol L-[^13 C6 ]tyrosine, delipidated and dialyzed protein (~1-4 mg) suspended in Buffer B was dried under vacuum in a glass reaction vial. Each vial then received 0.5 ml HBr (6 N) containing 1% phenol. […]
Mass Spectrometric Analysis--n-Propyl, perheptafluorobutyl (HFB) and n-propyl, perpentafluoroproprionyl (PFP) derivatives of amino acids were prepared (38) and analyzed on a Hewlett Packard 5890 Gas Chromatograph interfaced with a Hewlett Packard 5988A Mass Spectrometer equipped with extended mass range. […]
Amino acids were quantified utilizing stable isotope dilution GC-MS analysis in the negative-ion chemical ionization mode (25,26). 3-Chlorotyrosine was monitored as its n-propyl-per-HFB derivative utilizing selected ion monitoring of the base peak at mass-to-charge ratio (m/z) 451 (M^.- -HFB), another prominent ion at m/z 629 (M^.- -HF), and their isotopically labeled internal standard ions at m/z 457 and 635, respectively.
L-Tyrosine was monitored as its n-propyl-per-HFB derivative using the base peak at m/z 417 (M^.- -HFB), another major ion at m/z 595 (M^.- -HF), and their labeled internal standard ions at m/z 423 and 601, respectively. […]

[2] = PMA-activated human neutrophils 1×10^6/ml, 60 min, 37° C., additive to complete neutrophil system

O=S(=O)([O-])[O-].[Cu+2] [copper, CuSO4]
3-chlorotyrosine content of LDL exposed to oxidation system [1]: little change

O=NOO [peroxynitrite]
3-chlorotyrosine content of LDL exposed to oxidation system [1]: little change

superoxide dismutase: catalyzes the conversion of O2.- into H2O2
3-chlorotyrosine production in LDL incubated with activated phagocytes (Human neutrophils; [2]): further generation

O=S(=O)([O-])[O-].[Fe+2] [iron, FeSO4]
3-chlorotyrosine content of LDL exposed to oxidation system [1]: little change

C[C@H](CCC(=O)O)C[C@H](C)C[C@H](C)C(=O)/C=C(\O)[C@H](C)C[C@H](C)C/C=C/[C@@H](C)[C@@H](O)[C@@H](C)[C@@H](O)C[C@@H]1CC[C@@](C)([C@H]2CC[C@@](C)([C@@H](C)O)O2)O1 [ionomycin]
3-chlorotyrosine production in LDL incubated with activated phagocytes (Human neutrophils; ionomycin (1 μM) added together with superoxide dismutase (10 μg/ml)): further generation

horseradish peroxidase
3-chlorotyrosine content of LDL exposed to oxidation system [1]: little change

OCl [HOCl, hypochlorous acid]
3-chlorotyrosine content of LDL exposed to oxidation system [1]: resulted in 3-chlorotyrosine formation; also recorded: Significant levels
3-Chlorotyrosine/L-Tyrosine ([1]; LDL + HOCl (100 μM), no enzyme, 1 h): 68 umol/mol

lactoperoxidase
3-chlorotyrosine content of LDL exposed to oxidation system [1]: little change

[N-]=[N+]=[N-].[Na+] [NaN3]
3-Chlorotyrosine/L-Tyrosine (myeloperoxidase): 0 umol/mol
3-chlorotyrosine production in LDL incubated with activated phagocytes (Human neutrophils; [2]): inhibited

glucose
3-chlorotyrosine content of LDL exposed to oxidation system [1]: little change

B1: Catalase: a peroxide scavenger (protein, UniProt P00432 2-527, looked up)
Catalase: ADNRDPASDQMKHWKEQRAAQKPDVLTTGGGNPVGDKLNSLTVGPRGPLLVQDVVFTDEMAHFDRERIPERVVHAKGAGAFGYFEVTHDITRYSKAKVFEHIGKRTPIAVRFSTVAGESGSADTVRDPRGFAVKFYTEDGNWDLVGNNTPIFFIRDALLFPSFIHSQKRNPQTHLKDPDMVWDFWSLRPESLHQVSFLFSDRGIPDGHRHMNGYGSHTFKLVNANGEAVYCKFHYKTDQGIKNLSVEDAARLAHEDPDYGLRDLFNAIATGNYPSWTLYIQVMTFSEAEIFPFNPFDLTKVWPHGDYPLIPVGKLVLNRNPVNYFAEVEQLAFDPSNMPPGIEPSPDKMLQGRLFAYPDTHRHRLGPNYLQIPVNCPYRARVANYQRDGPMCMMDNQGGAPNYYPNSFSAPEHQPSALEHRTHFSGDVQRFNSANDDNVTQVRTFYLKVLNEEQRKRLCENIAGHLKDAQLFIQKKAVKNFSDVHPEYGSRIQALLDKYNEEKPKNAVHTYVQHGSHLSAREKANL
3-Chlorotyrosine/L-Tyrosine (myeloperoxidase): 0 umol/mol
Chlorination of apolipoprotein B100 (3-chlorotyrosine production) by myeloperoxidase-H2O2-Cl- system (myeloperoxidase; additive to complete system, result in words): blocked
3-chlorotyrosine production in LDL incubated with activated phagocytes (Human neutrophils; [2]): inhibited
